Values quoted from earlier work, collected in patent publication US8609138B2, “ω3 fatty acid compound preparation” (Mochida Pharmaceutical Co., Ltd., priority 2010, dated 2013).

How the values were obtained:
[1] = pH 7.4; Non-Patent Literature 1
[2] = pharmaceutical products; Non-Patent Literatures 2-4

Row | log P7.4; water-octanol partition coefficient at a pH of 7.4 [1] | partition coefficient (octanol-water partition coefficient) [2] | Compound
1 | ~-0.33 |  | CC(C)c1nc(N(C)S(C)(=O)=O)nc(-c2ccc(F)cc2)c1/C=C/[C@@H](O)C[C@@H](O)CC(=O)O [rosuvastatin]
2 | −0.84 |  | CC[C@H](C)C(=O)O[C@H]1C[C@H](O)C=C2C=C[C@H](C)[C@H](CC[C@@H](O)C[C@@H](O)CC(=O)O)[C@H]21 [pravastatin]
3 |  | −0.3±0.1 | CC(C)c1nc(N(C)S(C)(=O)=O)nc(-c2ccc(F)cc2)c1/C=C/[C@@H](O)C[C@@H](O)CC(=O)[O-].CC(C)c1nc(N(C)S(C)(=O)=O)nc(-c2ccc(F)cc2)c1/C=C/[C@@H](O)C[C@@H](O)CC(=O)[O-].[Ca+2] [rosuvastatin calcium]
4 | 1.60 |  | CCC(C)(C)C(=O)O[C@H]1C[C@@H](C)C=C2C=C[C@H](C)[C@H](CC[C@@H]3C[C@@H](O)CC(=O)O3)[C@H]21 [simvastatin]
5 |  | −0.33 | CC[C@H](C)C(=O)O[C@H]1C[C@H](O)C=C2C=C[C@H](C)[C@H](CC[C@@H](O)C[C@@H](O)CC(=O)O)[C@H]21 [Pravastatin sodium]
